Test results: ChEMBL document CHEMBL4619748, “Enhancing the activity of membrane remodeling epsin-peptide by trimerization” (Bioorg Med Chem Lett, 2020)
Activity calls are given as the source filed them. No cut-off for these calls is given here. Starred links: 1 amine or outer side, 2 acyl side, 3 side chain; linkers in the order of their positions; H or OH if unused. Positions of bridges follow the written chain, without caps; N, C: chain ends. Non-standard residues stand in square brackets, D forms with d. Chains are numbered I, II in the order given. εLys = N[C@@H](CCCCN[*:1])C(=O)[*:2]; Nle = CCCC[C@H](N)C(=O)O

What was measured:
HeLa [1] = experiment: Cytotoxicity against human HeLa cells assessed as proportion of cells with ruptured cell membrane at 1 uM incubated for 30 mins in presence of 10 uM FITC-R8 peptide by propidium iodide staining based assay; conditions: 0.5 h
HeLa [2] = experiment: Induction of membrane-remodelling in human HeLa cells assessed as increase in cell internalization of FITC-R8 peptide at 0.25 uM incubated for 30 mins by PI staining based assay; format: cell membranes
Lipid bilayer [3] = experiment: Binding affinity to POPC/POPS (3:1) LUVs assessed as stabilization of drug peptide's alpha helical signature with CD minima at around 208 and 222 nm and a positive ellipticity below 200 nm at 6.7 uM by CD spectroscopy
HeLa [4] = experiment: Induction of membrane-remodelling in human HeLa cells assessed as increase in cell internalization of FITC-R8 peptide at 1 uM incubated for 30 mins by PI staining based assay; format: cell membranes
[5] = Cytotoxicity against human HeLa cells assessed as cell viability at <=1 uM by WST8 assay; format: cell-based; conditions: read-out: Activity
Lipid bilayer [6] = experiment: Induction of membrane-remodelling in DOPE bilayer assessed as phase transition temperature required for conversion of lamellar L-alpha phase to inverted hexagonal HII phase at peptide to lipid molar ratio of 1:100 by solid-state 31P NMR analysis (reference value: 25 degC)
HeLa [7] = experiment: Induction of membrane-remodelling in human HeLa cells assessed as increase in cell internalization of FITC-R8 peptide at 0.5 uM incubated for 30 mins by PI staining based assay relative to control; format: cell membranes
HeLa [8] = experiment: Induction of membrane-remodelling in human HeLa cells assessed as loosening of the lipid package by measuring decrease in generalized polarization of cell membrane at 0.5 uM incubated for 10 mins by di-4-ANEPPDHQ polarity-sensitive fluorescent membrane probe based confocal microscopic method; format: cell membranes

- Activity (HeLa [2]): Active
- Activity (Lipid bilayer [3]): Active
- Activity (HeLa [4]): inactive
- T (Lipid bilayer [6]): 46 °C
- Activity (HeLa [7]): 60%
- Activity (HeLa [8]): Active
Substance: I: H-[Nle]SSLRRQ[Nle]KNIVHNYS[εLys]GKGKG-OH / II: H-[Nle]SSLRRQ[Nle]KNIVHNYS / III: H-[Nle]SSLRRQ[Nle]KNIVHNYS (amide I:19-III:C, I:21-II:C)
- Activity (HeLa [1]): > 10%
- viability [5]: > 90%
